Test results: article PMC11950244, “Discovery of novel dual-target inhibitors of LSD1/EGFR for non-small cell lung cancer therapy” (Acta Pharmacologica Sinica, 2025)
Where two headings read alike, the source gives them in different places.

Tests used:
[1] = tested on: BaF3 cells harboring EGFR L858R/T790M/C797S mutant; design: method as in PMID 30429956; settings: read-out: IC50 BaF3 cells harboring EGFR L858R/T790M/C797S, previous studies; cited from earlier work
[2] = tested on: BaF3 cells stably expressing EGFR (L858R/T790M/C797S); assay: BaF3 cell assay (CTG luminescence); settings: Mus musculus, BaF3, read-out: BaF3 cell assay IC50 (μM) L858R/T790M/C797S
[3] = target: T1, LSD1 (Homo sapiens, UniProt O60341); assay: LSD1 enzymatic assay; format: biochemical; settings: for Bottom / Top / Hillslope: concentration-response curve fit parameter;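 on Bottom: percent inhibition of LSD1 activity from the fitted dose-response curve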;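 on Top: percent inhibition of LSD1 activity from the fitted dose-response curve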
Method: A total of 12 compounds were purchased from J&K Scientific Ltd. (Shanghai, China). The biological experiments of inhibiting the enzymatic activity of LSD1 by 12 test compounds were conducted by Pharmaron (Beijing, China). Each compound was serially diluted 4-fold in 100% dimethyl sulfoxide (DMSO) from a starting DMSO stock concentration of 20 mM to obtain 10 concentration doses. Seclidemstat was used as a positive control. The diluted compounds were added to the LSD1 assay buffer (50 mM Tris-HCl, pH 7.5, and 1% DMSO) and incubated with LSD1 for 30 min at room temperature. The peptide substrate was then added to initiate the reaction, and the mixture was further incubated for 60 min at room temperature. The reaction was stopped by adding the stop solution, followed by the addition of the detection solution containing protein-A-Eu, streptavidin-d2, and anti-Histone H3 (dimethyl K9) antibody. […] The IC50 was calculated using a nonlinear regression (dose response – variable slope) by fitting the inhibition ratio and log of compound concentrations using Graphpad 8.0.

[4] = target: double-mutant EGFR (T790M/L858R) (Homo sapiens, UniProt P00533, L858R/T790M); assay: EGFR kinase assay (HTRF), double mutant; format: biochemical
Chain of double-mutant EGFR (T790M/L858R) (P00533 25-1210 T790M/L858R): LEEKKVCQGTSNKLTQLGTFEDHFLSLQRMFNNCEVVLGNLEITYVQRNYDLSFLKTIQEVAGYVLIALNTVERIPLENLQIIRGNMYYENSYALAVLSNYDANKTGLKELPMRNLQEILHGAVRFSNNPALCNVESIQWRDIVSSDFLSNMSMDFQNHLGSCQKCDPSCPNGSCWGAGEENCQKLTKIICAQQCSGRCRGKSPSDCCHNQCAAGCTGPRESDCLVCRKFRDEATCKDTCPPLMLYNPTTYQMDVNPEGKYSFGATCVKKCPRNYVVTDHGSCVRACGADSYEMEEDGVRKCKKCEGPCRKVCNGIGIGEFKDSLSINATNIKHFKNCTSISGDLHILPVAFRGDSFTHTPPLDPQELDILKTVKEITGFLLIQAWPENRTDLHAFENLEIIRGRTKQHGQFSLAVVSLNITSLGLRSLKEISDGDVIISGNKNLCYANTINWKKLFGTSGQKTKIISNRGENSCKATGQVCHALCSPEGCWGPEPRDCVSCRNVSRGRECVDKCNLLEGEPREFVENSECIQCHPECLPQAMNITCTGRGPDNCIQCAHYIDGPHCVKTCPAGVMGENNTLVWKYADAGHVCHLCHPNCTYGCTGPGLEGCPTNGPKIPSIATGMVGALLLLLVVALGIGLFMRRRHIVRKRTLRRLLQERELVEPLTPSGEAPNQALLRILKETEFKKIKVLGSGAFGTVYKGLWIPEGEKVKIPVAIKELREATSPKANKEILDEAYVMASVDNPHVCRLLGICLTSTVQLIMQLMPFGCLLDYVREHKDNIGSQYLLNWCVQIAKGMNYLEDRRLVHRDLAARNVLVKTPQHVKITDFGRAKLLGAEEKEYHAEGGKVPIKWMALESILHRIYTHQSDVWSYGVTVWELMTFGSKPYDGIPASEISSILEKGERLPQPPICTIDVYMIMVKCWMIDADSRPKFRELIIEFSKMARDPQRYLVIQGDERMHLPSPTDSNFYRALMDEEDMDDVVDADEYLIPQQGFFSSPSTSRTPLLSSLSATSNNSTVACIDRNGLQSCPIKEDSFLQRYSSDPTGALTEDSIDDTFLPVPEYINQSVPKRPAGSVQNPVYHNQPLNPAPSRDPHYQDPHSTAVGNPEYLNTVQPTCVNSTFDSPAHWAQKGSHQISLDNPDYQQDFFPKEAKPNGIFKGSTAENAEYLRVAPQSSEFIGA
Method: (§1) The biological experiments of inhibiting the activity of EGFR by test compounds were also performed by Pharmaron (Beijing). To conduct the kinase assay, the following steps were followed:
(§2) % Inhibition is calculated as follow: %Inhibition=1−SINGALcmpd−SINGALave−pc/SINGALave−vc−SINGALave−pc×100
(§3) SINGALcmpd = singal for compound being tested
(§4) SINGALave_pc = singal for positive controls
(§5) SINGALave_vc = singal for vehicle controls

[5] = target: triple-mutant EGFR (L858R/T790M/C797S) (Homo sapiens, UniProt P00533, C797S/L858R/T790M); assay: EGFR kinase assay (HTRF), triple mutant; format: biochemical
Chain of triple-mutant EGFR (L858R/T790M/C797S) (P00533 25-1210 T790M/C797S/L858R): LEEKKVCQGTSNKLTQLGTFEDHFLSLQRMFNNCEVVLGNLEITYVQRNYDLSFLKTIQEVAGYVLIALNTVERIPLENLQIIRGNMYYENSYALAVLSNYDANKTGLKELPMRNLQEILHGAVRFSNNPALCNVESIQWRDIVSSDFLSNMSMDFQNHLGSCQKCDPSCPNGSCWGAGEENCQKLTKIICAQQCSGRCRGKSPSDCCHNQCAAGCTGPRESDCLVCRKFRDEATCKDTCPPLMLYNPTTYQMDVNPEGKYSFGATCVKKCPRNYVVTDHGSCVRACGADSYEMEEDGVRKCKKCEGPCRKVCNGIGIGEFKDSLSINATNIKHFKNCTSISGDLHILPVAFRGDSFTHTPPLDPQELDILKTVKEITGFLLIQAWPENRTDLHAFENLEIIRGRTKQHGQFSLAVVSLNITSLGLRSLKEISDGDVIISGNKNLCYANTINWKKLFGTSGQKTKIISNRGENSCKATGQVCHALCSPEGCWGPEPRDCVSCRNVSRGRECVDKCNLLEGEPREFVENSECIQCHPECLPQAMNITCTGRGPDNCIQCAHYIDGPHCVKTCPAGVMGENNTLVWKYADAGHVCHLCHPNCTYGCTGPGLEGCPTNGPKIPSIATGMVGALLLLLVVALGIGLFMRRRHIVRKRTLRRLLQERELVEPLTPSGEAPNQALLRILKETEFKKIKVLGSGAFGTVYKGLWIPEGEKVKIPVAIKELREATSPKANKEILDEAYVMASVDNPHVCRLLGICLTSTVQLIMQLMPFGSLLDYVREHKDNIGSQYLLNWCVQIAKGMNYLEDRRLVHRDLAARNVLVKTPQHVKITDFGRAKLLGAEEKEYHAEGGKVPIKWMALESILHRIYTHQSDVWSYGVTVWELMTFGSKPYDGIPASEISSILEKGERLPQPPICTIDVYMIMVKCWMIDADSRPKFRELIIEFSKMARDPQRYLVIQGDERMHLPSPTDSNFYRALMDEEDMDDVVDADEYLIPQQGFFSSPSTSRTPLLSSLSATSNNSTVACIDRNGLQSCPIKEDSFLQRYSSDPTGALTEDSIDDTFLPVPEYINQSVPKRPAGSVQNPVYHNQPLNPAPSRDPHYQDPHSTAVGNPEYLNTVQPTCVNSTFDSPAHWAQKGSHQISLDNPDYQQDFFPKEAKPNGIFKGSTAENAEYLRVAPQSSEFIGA
Method: as §1, §2, §3, §4, §5

[6] = target: T1, LSD1; assay: SPR binding assay (Biacore T200)
Method: Surface plasmon resonance (SPR) was employed to evaluate direct binding between compounds and LSD1 using Biacore T200 optical biosensor (Biacore Life Sciences, GE Healthcare). LSD1 was covalently attached to CM5 sensor chip via amine coupling. Binding experiments were conducted at 15 °C in a buffer containing 10 mM HEPES (pH 7.4), 150 mM NaCl, 1% DMSO, and 0.05% Tween, with a flow rate of 30 μL/min. Compounds were serially diluted in the same buffer and injected over the prepared surfaces for 15–25 s at increasing concentrations. Sensorgrams were corrected by subtracting signals from both an untreated reference channel and blank injections. Data analysis was performed using Biacore T200 evaluation software (GE Healthcare).

[7] = tested on: PC9 cells (with EGFR mutant); assay: Cell proliferation assay (cell number counting), PC9; format: cell-based
Method: (§6) Lung cancer H460, H1299, PC9, and H1975 cells were purchased from Procell (Wuhan, China) and cultured in RPMI-1640 medium (Thermo Fisher Scientific, MA, USA) supplemented with 10% fetal bovine serum (FBS, ExCell Bio, Shanghai, China). For cell proliferation assay, the cells were seeded in a 24-well plate (0.5 × 10^4 cells/well), then treated with L-1 with increasing concentrations (0, 2.5, 5, 10, 20, 40 μM) or vehicle alone. Cell numbers were counted using try-pan blue exclusion on the fourth day.

[8] = tested on: H1975 cells (with EGFR mutant); assay: Cell proliferation assay (cell number counting), H1975; format: cell-based
Method: as §6

[9] = tested on: H460 cells (with EGFR wild type); assay: Cell proliferation assay (cell number counting), H460; format: cell-based; settings: 0-40 μM, counted on the fourth day
Method: as §6

[10] = tested on: H1299 cells (with EGFR wild type); assay: Cell proliferation assay (cell number counting), H1299; format: cell-based; settings: 0-40 μM, counted on the fourth day
Method: as §6

[11] = tested on: H1975 cells-derived xenograft (CDX); assay: H1975 cell-derived xenograft (CDX) mouse model, tumor formation; format: in vivo, nude mice; settings: 75 and 150 mg/kg i.p. every two days, compared to control group
Method: (§7) Nude mice (nu/nu, female, 4–6-week-old) were purchased from Charles River (Beijing, China) and subcutaneously injected with 2 × 10^6 H1975 cells harboring on the right flank. Tumor growth was recorded by measurement of two perpendicular diameters using the equation: π/6 × length × width^2. To explore the effect of L-1 on tumorigenicity in lung cancer, when tumor volumes reached approximately 50 mm^3, mice received either vehicle control, L-1 (75 mg/kg) and L-1 (150 mg/kg), and they were administered every two days by i.p. injection. The mice were sacrificed, and the tumors were excised, imaged and weighed after inhibitor treatments. Statistical analyses have been done by comparison in relation to the control group with a two-tailed unpaired Student’s t test. The animal experiments were performed according to the institutional ethical guidelines approved by the Laboratory Animal Ethics Committee Nankai University.

[12] = Body weight of H1975 xenograft nude mice; format: in vivo; settings: 75 and 150 mg/kg i.p. every two days
Method: as §7

[13] = tested on: Ki67; assay: Ki67 immunohistochemical staining of CDX tumors; format: in vivo, nude mice; settings: CDX tumor, L-1 treatment group
Method: Immunohistochemistry was performed on paraffin-embedded sections. Tissue sections were dewaxed and rehydrated using standard protocol. Antigen retrieval was performed by boiling samples in citrate buffer for 45 min. Endogenous peroxidase activity was inhibited by using 3% hydrogen peroxidase. Sections were blocked in 3% BSA in PBS and incubated in primary antibody (Ki67, CST, MA, USA) overnight at 4 °C. Then the secondary antibody (Goat anti-rabbit IgG (H + L) HRP, Bioworld, OH, USA) was incubated at room temperature for 1.5 h and developed using DAB. Sections were counterstained with hematoxylin.

[14] = tested on: LSD1/EGFR relevant downstream signaling pathways; assay: Western blot of signaling pathway proteins in the H1975 CDX model; format: in vivo, nude mice
Method: Cells were lysed with lysis buffer (1.5 M NaCl, 1 M Hepes, 20% NP40, 0.1 M Na pyrophosphate, 0.1 M NaF, 0.1 M Na3VO4, 0.2 M glycerol phosphate) on ice for 30 min and then centrifuged at 12,000 r/min for 15 min at 4 °C. Protein samples were loaded into 12% SDS-PAGE, then separated by running for different voltage, and transferred onto PVDF membranes (Millipore, MA, USA). The membranes were blocked with 5% non-fat milk for 2 h and then incubated overnight at 4 °C or at room temperature for 2 h with the primary antibody and 1 h at room temperature with secondary antibody. Signals were detected using Luminol substrate solution (Millipore, MA, USA).

[15] = tested on: EGFR-mutant NSCLC cells; design: method as in Hu et al. [61]; settings: ref Hu et al. [61]; cited from earlier work
[16] = tested on: EGFR wild-type cells; design: method as in Hu et al. [61]; settings: ref Hu et al. [61]; cited from earlier work
[17] = read-out: IC50 (μM) against LSD1
[18] = read-out: EGFR kinase assay IC50 (μM) L858R/T790M/C797S
[19] = 0-40 μM, counted on the fourth day
[20] = LSD1 knockdown compared to control cells

| Compound | Relative potency % [3] | Bottom [3] | Top [3] | IC50 [3, 17] | further results |
| --- | --- | --- | --- | --- | --- |
| COc1cc(N2CCC(N3CCN(C)CC3)CC2)ccc1Nc1ncc(Cl)c(Nc2ccccc2P(C)(C)=O)n1 [Brigatinib, reference compound] |  |  |  |  | IC50 [1]: 0.42 µM; IC50 [2]: 0.4 µM |
| CCN(CC)c1ccc(/C=C2/C(=O)NC(=O)N(c3ccc(Cl)cc3)C2=O)cc1 [D-1] |  |  |  |  | IC50 [3]: > 100 µM |
| CCN(CC)c1ccc(/C=C2/C(=O)NC(=O)N(c3ccc(Cl)cc3)C2=O)c(OC)c1 [D-2] |  |  |  |  | IC50 [3]: > 100 µM |
| CCN(CC)c1ccc(/C=C2/C(=O)NC(=O)N(c3ccc(C(F)(F)F)cc3)C2=O)c(O)c1 [D-3] | 0.4% | 8.10 | 45.78 |  | IC50 [3]: 35.7 µM |
| Cc1ccc(-c2noc(-c3cccn(CC(=O)Nc4ccccc4Br)c3=O)n2)cc1 [D-4] | 0.5% | 5.79 | 60.26 | 29.2 µM | Hillslope [3]: 4.05 |
| COc1ccccc1NC(=O)Cn1cc(-c2nc(-c3ccc(C)cc3)no2)ccc1=O [D-5] | 0.7% | 7.19 | 54.06 | 21.5 µM | Hillslope [3]: 2.04 |
| CCOc1ccccc1NC(=O)Cn1cc(-c2nc(-c3ccc(C)cc3)no2)ccc1=O [D-6] |  |  |  | > 100 µM |  |
| COC(=O)c1ccccc1NC(=O)Cn1cc(-c2nc(-c3ccc(C)cc3)no2)ccc1=O [D-7] |  |  |  | > 100 µM |  |
| Cc1ccc(-c2noc(-c3ccc(=O)n(CC(=O)Nc4cccc(Br)c4)c3)n2)cc1 [D-8] |  |  |  | > 100 µM |  |
| Cc1ccc(-c2noc(-c3ccc(=O)n(CC(=O)Nc4ccc(Br)cc4)c3)n2)cc1 [D-9] | 0.5% | 3.84 | 52.57 | 26.6 µM |  |
| Cc1ccc(-c2noc(-c3ccc(=O)n(CC(=O)Nc4ccccc4C(F)(F)F)c3)n2)cc1 [D-10] | 0.4% | 2.43 | 42.68 | 34.3 µM |  |
| Cc1ccc(-c2noc(-c3ccc(=O)n(CC(=O)Nc4ccc(C)cc4Br)c3)n2)cc1 [D-11] |  |  |  | > 100 µM |  |
| COc1cc(Cl)c(C)cc1NC(=O)Cn1cc(-c2nc(-c3ccc(C)cc3)no2)ccc1=O [D-12] |  |  |  | > 100 µM |  |
| CCCCNC(=O)Cn1cc(-c2nc(-c3ccc(C)cc3)no2)ccc1=O [D-13] |  |  |  | > 100 µM |  |
| Cc1ccc(-c2noc(-c3ccc(=O)n(CC(=O)NCc4ccccc4)c3)n2)cc1 [D-14] | 0.5% | −1.64 | 48.09 | 28.3 µM | Hillslope [3]: 2.53; IC50 [4]: 73.9 µM; IC50 [5, 18]: 86.7 µM; IC50 [2]: 2.45 µM |
| COC(=O)c1sccc1NC(=O)Cn1cc(-c2nc(-c3ccc(C)cc3)no2)ccc1=O [D-15] |  |  |  | > 100 µM |  |
| Cc1noc(-c2ccc(=O)n(CC(=O)Nc3ccccc3Br)c2)n1 [D-16] | 0.5% | −2.33 | 51.97 | 28.7 µM | IC50 [5, 18]: 59.6 µM; IC50 [2]: 2.72 µM |
| CCCc1noc(-c2ccc(=O)n(CC(=O)Nc3ccccc3Br)c2)n1 [D-17] | 0.8% | −0.07 | 64.23 | 19.8 µM | IC50 [4]: > 100 µM; IC50 [5, 18]: > 100 µM |
| CC(C)c1noc(-c2ccc(=O)n(CC(=O)Nc3ccccc3Br)c2)n1 [D-18] |  |  |  | > 100 µM |  |
| CCN(CC)c1ccc(/C=C2/C(=O)NC(=O)N(c3ccc(Cl)cc3)C2=O)c(O)c1 [L-1] | 3.7% | −4.65 | 51.52 |  | IC50 [3]: 6.24 µM; Hillslope [3]: 1.26; Binding to LSD1 by SPR (in words) [6]: specific and reversible binding; Kd [6]: 18.2 µM; IC50 [5]: 5.01 µM; cell proliferation, PC9 [7, 19]: significantly inhibited; efficacy after LSD1 knockdown, PC9 [7, 20]: less effective; cell proliferation, H1975 [8, 19]: significantly inhibited; efficacy after LSD1 knockdown, H1975 [8, 20]: less effective; cell proliferation, H460 [9]: not have effect; cell proliferation, H1299 [10]: not have effect; tumor growth rate [11]: slower growth rate; tumor size [11]: smaller tumor size; tumor weight [11]: lighter tumor weight; body weight of nude mice [12]: did not affect; level of Ki67 (IHC) [13]: significantly suppressed; LSD1/EGFR relevant downstream signaling pathways (Western blot) [14]: could inhibit; IC50 [2]: 5.58 µM |
| Cc1ccc(-c2noc(-c3ccc(=O)n(CC(=O)Nc4ccccc4Br)c3)n2)cc1 [L-6] | 2.5% | −11.46 | 55.47 | 9.26 µM | Hillslope [3]: 1.86; Binding to LSD1 by SPR (in words) [6]: specific and reversible binding; Kd ([6]; SPR, 15 °C, read-out: dissociation constant (KD)): 26.4 µM; IC50 [4]: 26.5 µM; IC50 [5, 18]: 28.5 µM; IC50 [2]: 8.99 µM |
| C=CC(=O)Nc1cc(Nc2nccc(-c3cn(C)c4ccccc34)n2)c(OC)cc1N(C)CCN(C)C [Osimertinib] |  |  |  |  | effect on EGFR-mutant cells [15]: significant inhibitory effect; effect on EGFR wild-type cells [16]: less pronounced impact |
| C/C(=N\NC(=O)c1cccc(S(=O)(=O)N2CCN(C)CC2)c1)c1cc(Cl)ccc1O [Seclidemstat, seclidemstat, reference compound] |  |  |  |  | IC50 [3]: 0.231 µM; Inhibition of LSD1 enzymatic activity ([3]; at 10 μM): complete inhibition; Inhibitory activity against EGFR double mutant (in words) [4]: does not exhibit inhibitory activity; Inhibitory activity against EGFR triple mutant (in words) [5]: does not exhibit inhibitory activity; IC50 [2]: 0.98 µM |
